Assay results taken from patent US7115655B2, “Pyranocoumarin derivatives” (Elcom Biotechnology, Co. Ltd., priority 2002, dated 2006).
Where two headings read alike, the source gives them in different places.

Key:
[1] = target: T1, AChE (Electric eel Type V-S, Sigma) (Electrophorus electricus, UniProt O42275); assay: biochemical; type: biochemical
T1 construct: purchased Sigma Type V-S
Experimental: AChE inhibitory activity of the methanolic extract and CH2Cl2 fraction of Angelica gigas of the above Example 1 was measured by the method of Ellman et al. (Ellman, et al. (1961) A new and rapid colorimetric determination of acetylcholinesterase activity, Biochem. Pharmacol. 7: 88–95).
(§1) To a test tube containing a chromogen (5,5-dithiobis-2-nitrobenzoic acid) and a sample was added AChE homogenated with phosphate buffered saline (Electric eel Type V-S, Sigma), and a reaction was performed at 37° C. for 5 minutes, and thereto was added a substrate for the enzyme, […], and a reaction was further performed at 37° C. for 3 minutes. Neostigmine bromide was added thereto to terminate the reaction, and then, the absorbance was measured at 412 nm to obtain AChE inhibition (%). The above procedure was repeated with no AChE as a blank, or with no sample as a control.
AChE inhibitory activity of decursin of the above Example 2 and Compound 3 of the above Example 3 was measured according to the method in Experiment 1.
as §1, with “minutes. The above procedure was repeated with no AChE as a blank or with no sample as a control.” for “minutes.”, “obtain IC50 of” for “obtain”, “inhibition.” for “inhibition (%). The above procedure was repeated with no AChE as a blank, or with no sample as a control.”

[2] = system: mice with scopolamine-induced amnesia; assay: Passive avoidance test in mice with scopolamine-induced amnesia; type: in vivo, Male ICR mice; conditions: for cognition-enhancing activity in passive avoidance test, in words: mice with scopolamine-induced amnesia
From the text: Male ICR mice weighing 25 to 30 g that had been bred with sufficient water and feed in the Experimental Animal Breeding Center of Seoul National University were supplied and adapted to the laboratory environment for 1 week to be used in this experiment.
An avoidance box (40×20×20 cm) equipped with 3 mm stainless steel rod spaced 0.5 cm apart at the bottom was divided into a light compartment and a dark compartment, and when mice placed in the light compartment entered the dark compartment, an electrical shock (0.1 mA/10 g body weight) was delivered through the stainless steel rods. The above procedure was repeated after 24 hours, and the time for which the mice stayed at the light compartment was measured and used as an index of memorizing the training of the previous day. Passive avoidance test was performed according to the method of Christensen et al. (Cholinergic ‘Blockade’ as a model of the cognitive deficits in Alzheimer's disease, Brain 115: 1681–1699, 1992). Specifically, scopolamine was dissolved in physiological saline to 1.5 mg/kg solution, and the solution was subcutaneously injected to mice 30 minutes before the training to induce amnesia. The Angelica gigas extract was intraperitoneally injected to the mice 1 hour before the scopolamine administration, and observed for its effect on the scopolamine-induced amnesia.
Passive avoidance test was performed according to the method of the above Experiment 1(2) to measure effects of pyranocoumarin derivatives of the present invention. Velnacrine (AChE inhibitor) was used as a positive control.

[3] = Table 4, 1 mg/kg + scopolamine 1.5 mg/kg, Mean ± S.D.
[4] = Table 4, 5 mg/kg + scopolamine 1.5 mg/kg, Mean ± S.D.
[5] = read-out: IC50 of AChE inhibition

T1 sequence (O42275 24-633): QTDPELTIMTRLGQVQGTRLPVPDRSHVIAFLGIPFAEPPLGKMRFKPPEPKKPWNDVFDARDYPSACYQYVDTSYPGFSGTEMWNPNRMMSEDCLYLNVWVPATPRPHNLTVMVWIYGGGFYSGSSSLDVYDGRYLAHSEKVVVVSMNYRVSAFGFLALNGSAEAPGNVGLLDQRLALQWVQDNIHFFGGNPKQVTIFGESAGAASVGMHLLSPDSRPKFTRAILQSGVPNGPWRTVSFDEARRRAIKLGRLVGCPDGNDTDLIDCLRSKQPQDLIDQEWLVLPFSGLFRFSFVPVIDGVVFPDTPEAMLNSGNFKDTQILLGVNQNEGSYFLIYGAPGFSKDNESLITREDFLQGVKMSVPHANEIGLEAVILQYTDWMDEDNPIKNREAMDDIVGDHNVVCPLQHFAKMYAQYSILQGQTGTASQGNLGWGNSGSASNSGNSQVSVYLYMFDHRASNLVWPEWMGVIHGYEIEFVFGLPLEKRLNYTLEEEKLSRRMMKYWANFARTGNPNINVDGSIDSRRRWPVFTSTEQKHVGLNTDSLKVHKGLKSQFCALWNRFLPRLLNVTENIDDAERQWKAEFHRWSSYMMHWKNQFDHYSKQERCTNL

SMILES	AChE inhibitory activity, comparison in words [1]	Step-through latency [2, 3] [s]	Step-through latency [2, 4] [s]	cognition-enhancing activity in passive avoidance test, in words [2]	IC50 [1, 5] [µM]	other results
CC(C)=CC(=O)O[C@H]1Cc2cc3ccc(=O)oc3cc2OC1(C)C [Compound 1, decursin]	better AChE inhibitory activity than decursinol	108.6 ± 15.0	96.5 ± 18.2	excellent cognition-enhancing activity	–	IC50 [1]: 480 µM; Step-through latency ([2]; Table 4, 0.5 mg/kg + scopolamine 1.5 mg/kg, Mean ± S.D.): 32.1 ± 13.4 s
CC1(C)Oc2cc3oc(=O)ccc3cc2C[C@@H]1O [Compound 2, decursinol, reference compound]	–	52.1 ± 8.8	54.4 ± 10.6	did not show such activity	28	Step-through latency ([2]; Table 4, 10 mg/kg + scopolamine 1.5 mg/kg, Mean ± S.D.): 43.2 ± 7.7 s
COc1ccc(/C=C/C(=O)OC2Cc3cc4ccc(=O)oc4cc3OC2(C)C)cc1 (stereo not drawn) [Compound 3]	better AChE inhibitory activity than decursinol	–	–	excellent cognition-enhancing activity	51	Step-through latency ([2]; Table 5, 1 mg/kg + scopolamine 1.5 mg/kg, Mean ± S.D.): 42.0 ± 17.9 s; Step-through latency ([2]; Table 5, 2 mg/kg + scopolamine 1.5 mg/kg, Mean ± S.D.): 86.0 ± 18.2 s; Step-through latency ([2]; Table 5, 5 mg/kg + scopolamine 1.5 mg/kg, Mean ± S.D.): 171.2 ± 18.7 s
CN1[C@@H]2C[C@@H](OC(=O)[C@H](CO)c3ccccc3)C[C@H]1[C@@H]1O[C@@H]12 [Scopolamine, scopolamine, reference compound]	–	–	–	–	–	Step-through latency ([2]; Table 2, scopolamine alone 1.5 mg/kg s.c. (amnesia induction), saline 158.8 ± 27.6): 29.7 ± 3.1 s; Step-through latency ([2]; Table 4, scopolamine alone 1.5 mg/kg s.c. (amnesia induction), saline 172.0 ± 16.0): 29.7 ± 2.8 s; Step-through latency ([2]; Table 5, scopolamine alone 1.5 mg/kg s.c. (amnesia induction), saline 179.7 ± 0.6): 28.4 ± 10.1 s
Nc1c2c(nc3ccccc13)CCCC2O (stereo not drawn) [velnacrine, Velnacrine, reference compound]	–	73.4 ± 6.4	–	–	–	–
